Tested on: Plasmodium falciparum
Test: GSK_TCMDC: Inhibition of Plasmodium falciparum 3D7 in whole erythrocytes, using parasite LDH activity as an index of growth.
Format: functional, organism-based
Settings: Plasmodium falciparum, 3D7

Row | Structure (SMILES) | XC50
1 | CC(C)C[C@@H](/C=N/N1CC(=O)NC1=O)NC(=O)[C@H](CC(C)C)NC(=O)c1ccc(OCCN2CCOCC2)cc1 | 0.27 µM
2 | CCCCCc1cc(OC(=O)CCCN(CC)CC)c2c(c1)OC(C)(C)C=C2C1=CCN(Cc2ccc3ccccc3c2)CC1 | 0.156 µM
3 | O=C(Nc1cccc(-c2nc3ccccc3[nH]2)c1)c1ccc(-c2cccc([N+](=O)[O-])c2)o1 | 0.151 µM
4 | CC1(C)N=C(N)N=C(N)N1OCc1cccc2c1ccc1ccccc12 | 0.0032 µM
5 | c1cc(CN2CCC(CCN3CCCCC3)CC2)cc(-c2csc(-c3nc4ccccc4[nH]3)c2)c1 | 0.142 µM
6 | O=C(Nc1ccc(OC2CCN(Cc3ccsc3)CC2)c(Cl)c1)c1cccs1 | 0.6 µM
7 | CCC1(CC)CN(c2ccccc2)c2ccc(O)cc2S(=O)(=O)C1CC(C)C (centres undefined) | 0.402 µM
8 | CC(C)CCNc1nc(NCc2ccccc2)c2cc(O)ccc2n1 | 0.105 µM
9 | FC(F)(F)c1ccc(-c2ccc(CNC3CCN(CCN4CCOCC4)CC3)cc2)cc1 | 0.756 µM
10 | CC(=O)Nc1ncc(C(=O)Nc2cccc(-c3cccc(-c4nc5ccccc5[nH]4)c3)c2)s1 | 0.814 µM
11 | CCN(CC)CCCC(C)Nc1c2ccccc2nc2c1ccc1ccccc12 (centres undefined) | 1.09 µM
12 | CCCC(C)Nc1nc(C)cc(NCCC(=O)Nc2ccccc2)n1 (centres undefined) | 0.959 µM
13 | Cc1cc(CNCCCCCCNCc2ccc(-c3ccccc3)cc2)ccc1O | 0.897 µM
14 | CCn1c(-c2nonc2N)nc2c(-c3cccc(NC(=O)Nc4cccc(C#N)c4)c3)ncc(OCCCN)c21 | 0.669 µM
15 | O=C(NC1CCN(c2ccnc3ccccc23)C1)c1cccc(C(F)(F)F)c1 (centres undefined) | 0.897 µM
16 | COc1ccc2[nH]ccc(=NN=Cc3cccnc3)c2c1 | 0.501 µM
17 | c1nc2nc3c(c(Nc4ccc5c(c4)CCC5)n2n1)CCC3 | 0.917 µM

Row | Structure (SMILES) | XC50
18 | ON=C1CCc2cc(-c3[nH]c(-c4cccc(OCCNCc5ccc(F)cc5)c4)nc3-c3ccncc3)ccc21 | 0.89 µM
19 | O=C(Nc1cc(Cl)ccc1-n1cncn1)C1(c2ccccc2)CC1 | 0.455 µM
20 | CCOC(=O)c1cccc(NC(=O)Nc2cccc(-c3ncc(OCCCN)c4c3nc(-c3nonc3N)n4CC)c2)c1 | 0.894 µM
21 | CC(=O)Nc1nc(C(=O)Nc2cccc(-c3cccc(-c4nc5cccc(C)c5[nH]4)c3)c2)cs1 | 0.115 µM
22 | COc1ccc(Cl)cc1S(=O)(=O)Nc1cccc(CCN2CCC(N3CCCCC3)CC2)c1 | 0.704 µM
23 | COc1cc2nc(NCc3ccc(S(N)(=O)=O)cc3)nc(Nc3ccc(Oc4ccccc4)cc3)c2cc1OC | 0.445 µM
24 | CC(C)(C)c1cc(C(=O)N2CCN(c3cnccn3)CC2)n(Cc2ccccc2)n1 | 1.14 µM
25 | CCOC(=O)c1c(NC(NC(=O)c2ccc(C(C)(C)C)cc2)C(Cl)(Cl)Cl)sc2c1CCCC2 (centres undefined) | 0.809 µM
26 | O=C(/C=C/c1ccc(Cl)cc1)NCCCCCN1CCC(C(=O)Nc2cccc(Cl)c2)CC1 | 0.853 µM
27 | Cc1c(C)c2c(c(C)c1O)CC[C@@](C)(C(=O)N1CCC(CN3CCC(c4c[nH]c5ccccc45)CC3)CC1)O2 | 0.657 µM
28 | CN1CCC(N(Cc2ccc(-c3ccc(C(F)(F)F)cc3)cc2)C(=O)Cn2c(SCc3cccc(F)c3F)cc(=O)c3c2CCC3)CC1 | 0.161 µM
29 | O=C(/C=C/c1ccc(Cl)c(Cl)c1)N1CCC(CN2CCC(c3c[nH]c4cc5c(cc34)OCO5)CC2)CC1 | 0.68 µM
30 | CCNc1cc(C(=O)NC(Cc2ccccc2)C(O)CNC2CCSCC2)cc(N2CCCC2=O)c1 (centres undefined) | 0.133 µM
31 | O=C(n1c(-c2cc3ccccc3n2C(=O)C(F)(F)F)cc2ccccc21)C(F)(F)F | 0.878 µM
32 | Cc1ccc2[nH]c(-c3ccccc3N)cc2c1 | 0.923 µM
33 | O=C(/C=C/c1ccc(-c2ccccc2)cc1)NCCCCCN1CCC(c2c[nH]c3ccccc23)CC1 | 0.854 µM
34 | Cc1noc(-c2ccccc2)c1CN1CCCC2(CC(C(=O)NCc3cccc(F)c3F)=NO2)C1 (centres undefined) | 1.01 µM
